Data set [1] in a line: Cmax in male C57BL/6 mouse at 10 mg/kg, po measured after 24 hrs by UPLC/MS/MS analysis. In kind it is ADME, organism-based. The settings on record: in vivo.
Data set [2] is described as follows: AUC (0 to 24 hrs) in male C57BL/6 mouse at 10 mg/kg, po measured after 24 hrs by UPLC/MS/MS analysis. In kind it is ADME, organism-based. The settings on record: in vivo.
Data set [3] can be described thus: Tmax in male C57BL/6 mouse at 10 mg/kg, po measured after 24 hrs by UPLC/MS/MS analysis. The class given is ADME, organism-based. Particulars: in vivo.
The target of another data set is Galectin-9 (Homo sapiens, UniProt O00182). The experiment in a line: Inhibition of his-tagged N-terminal human Gal-9 preincubated for 30 mins followed by Biotin-ASF addition and measured after 1 hr by HTRF assay.
Galectin-9, sequence (O00182 whole entry): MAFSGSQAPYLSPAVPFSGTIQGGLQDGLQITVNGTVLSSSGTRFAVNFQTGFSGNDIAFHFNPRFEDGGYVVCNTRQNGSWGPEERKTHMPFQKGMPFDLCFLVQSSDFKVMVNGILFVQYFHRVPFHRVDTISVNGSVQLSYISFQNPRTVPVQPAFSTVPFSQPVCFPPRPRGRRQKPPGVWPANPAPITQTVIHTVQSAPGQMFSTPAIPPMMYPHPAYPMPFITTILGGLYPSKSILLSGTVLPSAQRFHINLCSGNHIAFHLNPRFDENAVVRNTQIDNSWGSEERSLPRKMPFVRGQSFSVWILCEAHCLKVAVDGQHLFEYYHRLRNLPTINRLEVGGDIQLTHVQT
The target in data set [4] is Galectin-3 (Mus musculus, UniProt P16110). The experiment in a line: Inhibition of his-tagged N-terminal recombinant mouse Gal-3 preincubated for 30 mins followed by Biotin-ASF addition and measured after 1 hr by HTRF assay. For orientation: TR-FRET usually uses a lanthanide donor and a delayed reading to cut background.
Galectin-3 (Mus musculus, UniProt P16110), sequence (P16110 whole entry): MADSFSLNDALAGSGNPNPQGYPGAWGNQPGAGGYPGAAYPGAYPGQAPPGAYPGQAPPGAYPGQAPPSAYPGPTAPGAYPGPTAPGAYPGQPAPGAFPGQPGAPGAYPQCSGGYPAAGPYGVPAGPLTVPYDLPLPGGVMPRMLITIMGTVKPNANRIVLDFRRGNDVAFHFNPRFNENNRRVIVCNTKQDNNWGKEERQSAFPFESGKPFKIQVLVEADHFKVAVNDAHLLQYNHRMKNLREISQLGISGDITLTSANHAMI
For the next data set, the target named is Galectin-1 (Homo sapiens, UniProt P09382). In words: Inhibition of his-tagged N-terminal human Gal-1 preincubated for 30 mins followed by Biotin-ASF addition and measured after 1 hr by HTRF assay.
Galectin-1, sequence (P09382 whole entry): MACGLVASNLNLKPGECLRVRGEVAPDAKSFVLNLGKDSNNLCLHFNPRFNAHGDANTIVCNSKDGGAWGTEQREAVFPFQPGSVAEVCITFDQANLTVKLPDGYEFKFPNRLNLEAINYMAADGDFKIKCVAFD
A short description of data set [5]: Permeability of the compound at pH 7.4 incubated for 4 hrs by PAMPA. The settings on record: for Papp at 4 h: PAMPA, pH 7.4, read-out: permeability; for permeability: pampa, pH 7.4, 4 h. The class given is ADME.
The nature of data set [6]: Permeability of the compound at pH 5.5 incubated for 4 hrs by PAMPA. In kind it is ADME. Particulars: for Papp at 4 h: PAMPA, pH 5.5, read-out: permeability. (In general: In PAMPA a lipid-coated filter parts donor from acceptor wells.)
The target of data set [7] is Galectin-3 (Homo sapiens, UniProt P17931). The experiment in a line: Inhibition of his-tagged N-terminal recombinant human Gal-3 preincubated for 30 mins followed by Biotin-ASF addition and measured after 1 hr by HTRF assay.
Galectin-3 (Homo sapiens, UniProt P17931), sequence (P17931 whole entry): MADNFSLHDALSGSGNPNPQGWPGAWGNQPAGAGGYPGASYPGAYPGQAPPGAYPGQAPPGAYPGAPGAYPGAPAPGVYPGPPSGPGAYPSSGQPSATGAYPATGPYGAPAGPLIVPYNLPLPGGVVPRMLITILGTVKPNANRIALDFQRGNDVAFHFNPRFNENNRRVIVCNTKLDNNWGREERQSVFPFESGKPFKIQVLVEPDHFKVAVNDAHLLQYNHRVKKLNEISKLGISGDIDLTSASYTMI
Data set [8] is described as follows: Permeability of the compound across basolateral to apical side in human Caco-2 cells assessed as drug recovery at pH 7.4 incubated for 2 hrs by LC-MS/MS analysis. The class given is ADME, cell-based. Particulars: Caco-2, pH 7.4, read-out: Drug recovery. Background: Caco-2 monolayers are a common model of the intestinal barrier.
Data set [9] is described as follows: Permeability of the compound across apical to basolateral side in human Caco-2 cells assessed as drug recovery at pH 7.4 incubated for 2 hrs by LC-MS/MS analysis. The settings on record: Caco-2, pH 7.4, read-out: Drug recovery. The class given is ADME, cell-based.
Data set [10] can be described thus: Permeability of the compound in human Caco-2 cells across basolateral to apical side at pH 7.4 incubated for 2 hrs by LC-MS/MS analysis. In kind it is ADME, cell-based. The settings on record: Caco-2, pH 7.4, read-out: permeability.
A short description of data set [11]: Permeability of the compound in human Caco-2 cells across apical to basolateral side at pH 7.4 incubated for 2 hrs by LC-MS/MS analysis. The class given is ADME, cell-based. The settings on record: Caco-2, pH 7.4, read-out: permeability.

Usually Cmax stands for the highest concentration seen after dosing. For orientation: AUC(0-t) means exposure summed from dosing to a finite time, without extrapolation to infinity. Read a low AUC(0-t) as low exposure. By Tmax is commonly meant the time at which the peak concentration occurs. In [1], `OC[C@H]1O[C@H](Sc2ccc(Cl)c(Cl)c2)[C@H](O)[C@@H](n2cc(-c3cc(F)c(F)c(F)c3)nn2)[C@H]1O` gave a Cmax of 6300 nM. In addition, the AUC(0-t) at 24 h in [2] worked out at 84 µM·h. Besides, the Tmax in data set [3] came to 7 h.

As for `Cc1nc([C@@H]2O[C@H](CO)[C@H](O)[C@H](n3cc(-c4cc(F)c(Cl)c(F)c4)nn3)[C@H]2O)n(-c2cc(Cl)ccc2C(F)(F)F)n1`, the Tmax in [3] came to 3 h.

As a reminder, the IC50 is the concentration that gives 50% inhibition. Turning to `CO[C@@H]1[C@@H](n2cc(-c3cc(F)c(Cl)c(F)c3)nn2)[C@@H](O)[C@@H](CO)O[C@H]1c1nncn1-c1cc(Cl)ccc1C(F)(F)F`, the IC50 came out at 7000 nM at Galectin-9, 160 nM on Galectin-3 [4] and 7000 nM on Galectin-1.

Turning to `CO[C@@H]1[C@@H](n2cc(-c3ccc(Cl)c(F)c3F)nn2)[C@@H](O)[C@@H](CO)O[C@H]1c1nncn1-c1cc(Cl)ccc1OC(F)(F)F`, the Cmax in data set [1] was found to be 3000 nM. For the same molecule, the Papp at 4 h is 49 ×10⁻⁶ cm/s in data set [5] and 54 ×10⁻⁶ cm/s in data set [6]. This molecule returned an AUC(0-t) at 24 h in data set [2] of 16 µM·h. In addition, the IC50 against Galectin-9 is 2400 nM; on Galectin-3 [4], 100 nM; on Galectin-1, 2000 nM. In data set [3], the Tmax came out at 3 h.

For the molecule `OC[C@H]1O[C@@H](c2nncn2-c2cc(Cl)ccc2OC(F)(F)F)[C@H](O)[C@@H](n2cc(-c3ccc(Br)c(F)c3F)nn2)[C@H]1O`, the Papp at 4 h was 18 ×10⁻⁶ cm/s in data set [5] and 21 ×10⁻⁶ cm/s in [6]. In addition, the half-maximal inhibitory concentration (IC50) at Galectin-3 [4] is 62 nM.

In the case of `OC[C@H]1O[C@@H](c2nncn2-c2cc(Cl)ccc2C(F)(F)F)[C@H](OCC(F)(F)C(F)F)[C@@H](n2cc(-c3ccc(Br)c(F)c3F)nn2)[C@H]1O`, the Papp at 4 h is 88 ×10⁻⁶ cm/s in data set [5] and 68 ×10⁻⁶ cm/s in data set [6]. Also, the IC50 on Galectin-3 [4] came to 110 nM.

`OC[C@H]1O[C@@H](c2nncn2-c2cc(Cl)ccc2C(F)(F)F)[C@H](O)[C@@H](n2cc(-c3ccc(Br)c(F)c3F)nn2)[C@H]1O`: the Papp at 4 h in [5] and in data set [6] was 7 ×10⁻⁶ cm/s throughout. For the same molecule, the IC50 at Galectin-3 [4] was 69 nM.

With `CO[C@@H]1[C@@H](n2cc(-c3ccc(Br)c(F)c3F)nn2)[C@@H](O)[C@@H](CO)O[C@H]1c1nncn1-c1cc(Cl)ccc1C(F)(F)F`, the IC50 came out at 9 nM at Galectin-3 [7] and 52 nM on Galectin-3 [4]. Besides, the Papp at 4 h in data set [5] came out at 28 ×10⁻⁶ cm/s; in [6], 33 ×10⁻⁶ cm/s.

As to `OC[C@H]1O[C@@H](c2nncn2-c2cc(Cl)ccc2Cl)[C@H](O)[C@@H](n2cc(-c3cc(F)c(Cl)c(F)c3)nn2)[C@H]1O`, the Papp at 4 h was determined as 1.7 ×10⁻⁶ cm/s in data set [5] and 3.6 ×10⁻⁶ cm/s in data set [6]. Besides, the IC50 at Galectin-3 [4] is 350 nM.

Consider `OC[C@H]1O[C@@H](c2nncn2-c2cc(Cl)ccc2OC(F)(F)F)[C@H](O)[C@@H](n2cc(-c3ccc(Cl)c(F)c3F)nn2)[C@H]1O`, for which the 50% inhibitory concentration (IC50) at Galectin-3 [7] came to 13 nM; on Galectin-3 [4] it was 100 nM. The Papp at 4 h in [5] is 27 ×10⁻⁶ cm/s.

For `OC[C@H]1O[C@@H](c2nncn2-c2cc(Cl)ccc2C(F)(F)F)[C@H](O)[C@@H](n2cc(-c3ccc(Cl)c(F)c3)nn2)[C@H]1O`, the Papp at 4 h in [5] stood at 2.1 ×10⁻⁶ cm/s; in data set [6] it was 1.8 ×10⁻⁶ cm/s. Moreover, the half-maximal inhibitory concentration (IC50) at Galectin-3 [4] was 100 nM.

In turn, `OC[C@H]1O[C@@H](c2ncnn2-c2ccc(Cl)c(Cl)c2)[C@H](O)[C@@H](n2cc(-c3cc(F)c(F)c(F)c3)nn2)[C@H]1O` registered a Cmax in [1] of 410 nM. For the same molecule, the exposure AUC(0-t) at 24 h in [2] turned out to be 1.8 µM·h. The time of peak concentration (Tmax) in [3] is 3 h.

With `CO[C@@H]1[C@@H](n2cc(-c3ccc(Br)c(F)c3)nn2)[C@@H](O)[C@@H](CO)O[C@H]1c1nncn1-c1cc(Cl)ccc1C(F)(F)F`, the IC50 on Galectin-3 [7] stood at 22 nM; at Galectin-3 [4], 71 nM. The Papp at 4 h in [5] came out at 22 ×10⁻⁶ cm/s; in [6], 20 ×10⁻⁶ cm/s.

For `Cc1nnc([C@@H]2O[C@H](CO)[C@H](O)[C@H](n3cc(-c4cc(F)c(Cl)c(F)c4)nn3)[C@H]2O)n1-c1cc(Cl)ccc1C(F)(F)F` (stereo in doubt; 4), the permeability in [5] (4 h) amounted to 4.4 ×10⁻⁶ cm/s. Moreover, the IC50 against Galectin-9 amounted to 4000 nM; at Galectin-3 [4], 67 nM; against Galectin-1 it was 2500 nM.

Consider `Cc1nnc([C@@H]2O[C@H](CO)[C@H](O)[C@H](n3cc(-c4cc(F)c(Cl)c(F)c4)nn3)[C@H]2O)n1-c1cc(Cl)ccc1C(F)(F)F` (stereo in doubt; 5), for which the figures for the IC50 at Galectin-3 [7] and at Galectin-3 [4] were 1300 nM and 7000 nM, respectively. This molecule had a permeability in data set [5] (4 h) of 1.6 ×10⁻⁶ cm/s.

With `OC[C@H]1O[C@@H](c2n[nH]c(=S)n2-c2cc(Cl)ccc2OC(F)(F)F)[C@H](O)[C@@H](n2cc(-c3ccc(Cl)c(F)c3F)nn2)[C@H]1O` (stereo in doubt; 16), the half-inhibitory concentration (IC50) at Galectin-3 [7] came out at 7 nM; on Galectin-3 [4], 50 nM. For the same molecule, the Papp at 4 h in [5] is 0.2 ×10⁻⁶ cm/s; in data set [6], 1.1 ×10⁻⁶ cm/s. The recovery at 2 h in data set [8] came to 81%; in data set [9], 67%. Also, the Papp B→A at 2 h in data set [10] is 3.2 ×10⁻⁶ cm/s. Besides, the Papp A→B at 2 h in [11] was less than 1.5 ×10⁻⁶ cm/s.

`OC[C@H]1O[C@@H](c2n[nH]c(=S)n2-c2cc(Cl)ccc2OC(F)(F)F)[C@H](O)[C@@H](n2cc(-c3ccc(Cl)c(F)c3F)nn2)[C@H]1O` (stereo in doubt; 17): the IC50 at Galectin-3 [7] was 70 nM; on Galectin-3 [4] it was 720 nM. Besides, in [5], the permeability amounted to 0.2 ×10⁻⁶ cm/s.

Consider `OC[C@H]1O[C@@H](c2n[nH]c(=S)n2-c2cc(Cl)ccc2C(F)(F)F)[C@H](O)[C@@H](n2cc(-c3ccc(Br)c(F)c3F)nn2)[C@H]1O` (stereo in doubt; 18), for which the IC50 at Galectin-3 [7] was 6.9 nM; at Galectin-3 [4], 25 nM. Moreover, in data set [5], the Papp at 4 h was determined as 0.1 ×10⁻⁶ cm/s.

Regarding `OC[C@H]1O[C@@H](c2n[nH]c(=S)n2-c2cc(Cl)ccc2C(F)(F)F)[C@H](O)[C@@H](n2cc(-c3ccc(Br)c(F)c3F)nn2)[C@H]1O` (stereo in doubt; 19), the IC50 on Galectin-3 [7] was determined as 76 nM; at Galectin-3 [4] it was 1000 nM. Also, the permeability in data set [5] (4 h) is 0.2 ×10⁻⁶ cm/s.

Consider `Cn1nc([C@@H]2O[C@H](CO)[C@H](O)[C@H](n3cc(-c4ccc(Br)c(F)c4F)nn3)[C@H]2O)n(-c2cc(Cl)ccc2C(F)(F)F)c1=S` (stereo in doubt; 20), for which the peak concentration (Cmax) in data set [1] worked out at 1900 nM. In data set [5] (4 h), this molecule yielded a permeability of 8.6 ×10⁻⁶ cm/s. The molecule further returned an AUC(0-t) at 24 h in data set [2] of 12 µM·h. Also, in data set [6], the Papp at 4 h was found to be 12 ×10⁻⁶ cm/s. For the same molecule, the values for the IC50 against Galectin-9, at Galectin-3 [4] and on Galectin-1 were 7200 nM, 40 nM and 2400 nM, respectively. Further, the figures for the recovery at 2 h in data set [8] and in data set [9] were 80% and 59%, respectively. Further, the Tmax in data set [3] turned out to be 3 h. In addition, in [10], the Papp B→A at 2 h was found to be 15 ×10⁻⁶ cm/s. Also, in data set [11], the Papp A→B at 2 h was less than 1.5 ×10⁻⁶ cm/s.

With `Cn1nc([C@@H]2O[C@H](CO)[C@H](O)[C@H](n3cc(-c4ccc(Br)c(F)c4F)nn3)[C@H]2O)n(-c2cc(Cl)ccc2C(F)(F)F)c1=S` (stereo in doubt; 21), the permeability in [5] (4 h) stood at 28 ×10⁻⁶ cm/s; in data set [6] (pampa, pH 5.5, 4 h, 4 h), 22 ×10⁻⁶ cm/s. Moreover, the IC50 on Galectin-3 [4] was 3800 nM.

The record behind these values is ChEMBL document CHEMBL5576131, “Atropisomerism Observed in Galactose-Based Monosaccharide Inhibitors of Galectin-3 Comprising 2-Methyl-4-phenyl-2,4-dihydro-3H-1,2,4-triazole-3-thione” (J Med Chem, 2024).
